Experimental data from patent US10865222B2, “Neisseria gonorrhoeae therapeutic based on CMP-nonulosonate sugars” (priority 2014, dated 2020).
“Also recorded” adds a separate entry of the source.

Key:
N. gonorrhoeae F62 ΔIgtD = test: Whole cell ELISA for Ab binding and complement component deposition; assay type: cell-based; details: for complement deposition (C3, C4 and fB) and Ig binding: 3.3% and 10% NHS; for Neu5Ac-mediated decrease in IgG binding and complement deposition (C4, C3, factor Bb): analogue 20, 2 or 0.2 μg/ml 15 min after CMP-Neu5Ac 20 μg/ml, 10% and 3.3% NHS
Protocol: FIG. 4. Complement C3 and C4 deposition on, and factor B binding to N. gonorrhoeae bearing nonulosonic acid analogues on LOS. N. gonorrhoeae F62 ΔIgtD was grown in media alone (open bars), or media supplemented with 20 μg/ml (˜30 μM) of each of the indicated CMP-nonulosonates. Bacteria were incubated with either 3.3% or 10% NHS at 37° C. for 10 min and IgG and IgM binding, and C3, C4 and factor B deposited on bacteria were measured by whole cell ELISA. Data with 3.3% and 10% NHS is shown by hatched and solid bars, respectively. Measurement of gonococcal H.8 lipoprotein antigen was performed to ensure similar bacterial capture to microtiter wells. The mean (SD) of triplicate observations is shown.
FIG. 6. CMP-Neu5Ac9Az and CMP-Leg5Ac7Ac interfere with inhibition of the classical and alternative pathways of complement mediated by CMP-Neu5Ac. N. gonorrhoeae F62 ΔIgtD was incubated with 20 μg/ml (˜30 μM) CMP-Neu5Ac, followed in 15 min by the addition of CMP-Neu5Ac9Az or CMP-Leg5Ac7Ac (at concentrations of 20, 2 or 0.2 μg/ml final) and bacteria were incubated for 2 h as described in FIG. 5. Bacteria were incubated in 10% NHS and Ab binding and complement deposition studies were carried out by ELISA as described in FIG. 4. The mean (SD) of two independent experiments is shown.
Binding of IgG and IgM to, and deposition of complement components C3, C4 and factor B on N. gonorrhoeae F62 ΔIgtD grown in the presence of the following CMP-nonulosonates was examined based on results of bactericidal assays and fH binding. […] N. gonorrhoeae F62 ΔIgtD with an unmodified (unsialylated) LNT LOS was used as the control serum sensitive strain. Experiments were carried out using serum concentrations of 10% and 3.3%, which represented the serum concentrations that produced discriminating phenotypes with Neu5Ac9Ac and Neu5Gc8Me.
To define the mechanism whereby Neu5Ac9Az and Leg5Ac7Ac blocked complement resistance by Neu5Ac, we studied Ab binding to, and complement component deposition on N. gonorrhoeae F62 ΔIgtD that was incubated with CMP-Neu5Ac (20 μg/ml), followed 15 min later with either CMP-Neu5Ac9Az or CMP-Leg5Ac7Ac at concentrations of 20, 2 or 0.2 μg/ml. Controls included bacteria grown in the absence of any CMP-nonulosonate, or bacteria grown in CMP-Neu5Ac alone.
C3 and C4 fragment deposition on, and factor B binding to bacteria were measured by whole cell ELISA as described previously (14, 15). Briefly, 2×10^8 organisms in HBSS^++ were incubated with NHS (at concentrations of 3.3% or 10%) in a reaction volume of 100 μl for 10 min at 37° C. This time point was chosen based on the kinetics of complement deposition on gonococci in previously published data (15). Reactions were stopped after 10 min by washing three times with ice-cold HBSS containing 5 mM phenylmethylsulfonyl fluoride at 4° C. Organisms were resuspended in 200 μl of the same buffer, and 50 μl of each sample applied per well of a 96-well U-bottomed polystyrene microtiter plate (Dynatech Laboratories, Inc., Chantilly, Va.) and incubated for 3 h at 37° C. Plates were washed with PBS containing 0.05% Tween 20. Primary antibodies (polyclonal goat anti-human C3, C4 and factor B) were diluted in PBS, and secondary antibodies diluted in PBS-0.05% Tween 20 prior to use. To ensure similar capture of bacteria incubated under different conditions, the amount of gonococcal H.8 antigen (16) expression using MAb 2-8C-4-1 (13), followed by anti-mouse IgG-alkaline phosphatase conjugate, was measured.

[1] = system: Ng 398078 (expresses P^K-like structure on HepI); test: Complement resistance of Ng 398078 (serum bactericidal assay); assay type: cell-based, N. gonorrhoeae; details: 10% normal human serum
Protocol: CMP-Leg5Ac7Ac and CMP-Neu5Ac9Az also counteracted CMP-Neu5Ac-mediated serum resistance of a P^K LOS expressing isolate called 398078 (Table 4).
Serum bactericidal assays were performed as described previously (11). Bacteria harvested from an overnight culture on chocolate agar plates were grown in liquid media containing the specified concentration of CMP-nonulosonate as specified for each experiment. Approximately 2000 CFU of F62 ΔIgtD were incubated with NHS (concentration specified for each experiment). The final reaction volumes were maintained at 150 μl. Aliquots of 25 μl of reaction mixtures were plated onto chocolate agar in duplicate at the beginning of the assay (t0) and again after incubation at 37° C. for 30 min (t30). Survival was calculated as the number of viable colonies at t30 relative to t0.

[2] = CMP-NulO 20 μg/ml added to media 15 min after CMP-Neu5Ac 20 μg/ml
[3] = 10% serum, compared with unsialylated F62 ΔIgtD
[4] = CMP-nonulosonate 20 μg/ml, NHS 3.3% or 10%

| Compound | complement deposition (C3, C4 and fB) and Ig binding (N. gonorrhoeae F62 ΔIgtD; CMP-nonulosonate 20 μg/ml) | Neu5Ac-mediated decrease in IgG binding and complement deposition (C4, C3, factor Bb) (N. gonorrhoeae F62 ΔIgtD) | % survival [mean (range)] [1, 2] | % survival [mean (range)] ([1]; CMP-NulO alone at 20 μg/ml) | C3, C4 and factor B deposition (N. gonorrhoeae F62 ΔIgtD; 3.3% serum) | C3, C4 and factor B deposition (N. gonorrhoeae F62 ΔIgtD; [3]) | IgG binding (N. gonorrhoeae F62 ΔIgtD; [4]) | IgM binding (N. gonorrhoeae F62 ΔIgtD; [4]) |
| --- | --- | --- | --- | --- | --- | --- | --- | --- |
| 5,7-diacetamido-3,5,7,9-tetradeoxy-D-glycero-D-galacto-nonulosonic acid [CMP-Leg5Ac7Ac] | highest levels of complement deposition and Ig binding | least amount of complement inhibition; also recorded: blocked this decrease | 0 (0) % | 0 (0) % |  |  |  |  |
| CC(=O)N[C@H]1[C@H]([C@H](O)[C@H](O)COC(C)=O)OC(OP(=O)(O)OC[C@H]2O[C@@H](n3ccc(N)nc3=O)[C@H](O)[C@@H]2O)(C(=O)O)C[C@@H]1O (stereo partly drawn) [CMP-Neu5Ac9Ac, CMP-5-acetamido-9-O-acetyl-3,5-dideoxy-D-glycero-D-galacto-nonulosonic acid] |  |  |  |  | low levels | only a modest decline | reduced IgG binding |  |
| CC(=O)N[C@H]1[C@H]([C@H](O)[C@H](O)CN=[N+]=[N-])OC(OP(=O)(O)OC[C@H]2O[C@@H](n3ccc(N)nc3=O)[C@H](O)[C@@H]2O)(C(=O)O)C[C@@H]1O (stereo partly drawn) [CMP-Neu5Ac9Az, CMP-5-acetamido-9-azido-3,5,9-trideoxy-D-glycero-D-galacto-nonulosonic acid] | highest levels of complement deposition and Ig binding | blocked this decrease | 7.5 (5.2) % | 7.1 (2.3) % |  |  |  |  |
| CC(=O)NC1C(O)CC(OP(=O)(O)OCC2OC(n3ccc(N)nc3=O)C(O)C2O)(C(=O)O)OC1C(O)C(O)CO [CMP-Neu5Ac, CMP-5-acetamido-3,5-dideoxy-D-glycero-D-galacto-nonulosonic acid, reference compound] | maximal complement inhibition |  |  | 57.5 (1.6) % |  |  | decreased IgG binding substantially | small but reproducible decrease |
| COC(CO)C(O)C1OC(OP(=O)(O)OCC2OC(n3ccc(N)nc3=O)C(O)C2O)(C(=O)O)CC(O)C1NC(=O)CO [CMP-Neu5Gc8Me, CMP-5-hydroxyacetamido-8-O-methyl-3,5-dideoxy-D-glycero-D-galacto-nonulosonic acid] |  |  |  |  | low levels | only a modest decline | reduced IgG binding |  |
